Test system: Lewis lung carcinoma (LLC)
Experiment: tumor growth assay, Lewis lung carcinoma model
Assay type: in vivo, mice
Conditions: for Complete Response Rate: Sel 5 mg/kg d7, 8, 9, Ch/Rx = cisplatin 4 mg/kg d0 plus 3.6 Gy/d d0-4; for tumor growth / complete regressions: Experiments LLC-1, LLC-2, LLC-4
Procedure: LL/2 (LLC) cells, a murine Lewis lung carcinoma cell line, were maintained in DMEM, supplemented with 10% heat-inactivated fetal bovine serum, L-glutamine, penicillin/streptomycin (Life Technologies, Inc.) at 37° C. and 7% CO2. LLC cells were implanted in female C57BL/6 mice.
For the tumor growth assay, cells growing exponentially in culture were injected as a single cell suspension in 100 μl of PBS intramuscularly into the upper legs of the mice. In experiments using a dual tumor model, cells were also implanted in the flanks of the mice. […] In Experiment LLC-7, tumors were implanted in the flank until established. Mice were treated on days 0 to 9, then, on day 12, tumors were excised using survival surgery. Thereafter, animal survival was monitored. In Experiment LLC-14, tumors were implanted subcutaneously in the flank until established. Mice were treated on days 0 to 6 and day 17, and tumor size was measured twice weekly for the duration of the study.
Tumors were measured with calipers in three dimensions for the duration of the experiment. Tumor volumes were calculated using the equation:
Volume=4/3π(L/2×W/2×H/2) • where L=length, W=width and H=height of the tumor
For local irradiation, mice were anesthetized by intraperitoneal injection of a solution of 2% tribromoethanol/3% xylazine. The amount injected was 0.02 ml/gram of the recipient's weight. Mice were restrained so that only their tumor-bearing leg was exposed to radiation, while the reminder of the mouse was shielded. Tumors were irradiated with ^137Cs gamma radiation at a dose rate of 1 Gy/min using a Gammacell® 40 Exactor (Nordion, Ottawa, ON).
Data from the subcutaneous tumor growth assay are presented in graphic form depicting average and standard deviations (sd) of tumor volumes or weights during and after dosing. Animal weight changes were determined by subtracting the animal weight at each time point from the initial body weight, on day 0, then dividing by the initial body weight and multiplying by 100. Therefore a value of 0 indicates no weight change.
Student's 2-tailed t test or Mann-Whitney Rank Sum test, as appropriate, was performed on the individual tumor volumes or animal weights, to determine significant differences between treatment groups.

[1] = Experiment LLC-6, chemoradiation followed by EMD521873
[2] = LLC-3, EMD521873 with cisplatin plus 1.2 Gy/d
[3] = triple combination of chemoradiation plus EMD521873

dI-NHS76γ2(h)(FN>AQ)-ala-IL2(D20T) [EMD521873]
Complete Response Rate (Exp LLC-3): 0/6 | Complete Response Rate (Exp LLC-4): 1/8 | Complete Response Rate (Exp LLC-5): 0/6 | growth control of the irradiated lesion (leg tumor) [1]: good growth control | growth control of the non-irradiated flank tumor [1]: did not surpass that of EMD521873 alone | tumor growth (EMD521873 5 mg/kg d7, 8, 9 with radiation 3.6 Gy/d d0-4): reduced tumor growth compared to any of the single treatments and to the other double treatments | complete regressions (EMD521873 with radiation): 3/6 | tumor growth (cisplatin 4 mg/kg d0 added to radiation/EMD521873): further growth control | complete regressions (cisplatin added to radiation/EMD521873 (triple combination)): 5/6 | complete responses (Experiments LLC-1, LLC-2, 3.6 Gy days 0-4 followed by EMD521873 5 mg/kg i.v. days 7, 8, 9): 3/6 | complete responses (Experiments LLC-1, LLC-2, EMD521873 monotherapy 5 mg/kg i.v. days 7, 8, 9): No complete responses | tumor growth control (LLC-3, EMD521873 5 mg/kg d7, 8, 9 with cisplatin plus 0.4 Gy/d, vs EMD521873 alone or EMD521873 plus cisplatin): did not improve tumor growth control | complete responses [2]: no complete responses | tumor growth control [2]: improved growth control compared to either therapy alone | complete responses (LLC-3, cisplatin plus 3.6 Gy/d in combination with EMD521873): 5/6 | T/C (LLC-3, day 19, cisplatin plus 3.6 Gy/d in combination with EMD521873): 0.02 | T/C (LLC-3, day 19, single-arm groups: cisplatin plus 3.6 Gy/d without EMD521873, or EMD521873 alone): 0.69 | complete responses (LLC-3, single-arm groups: cisplatin plus 3.6 Gy/d without EMD521873, or EMD521873 alone): 0/6 | animals with complete response (LLC-8, LLC-9, combination with chemoradiation): 4/6 | T/C (LLC-8, LLC-9, day 21, combination with chemoradiation (cisplatin 4 mg/kg d0 plus 3.6 Gy/d d0-4)): 0.03 | response rate (CRs) (LLC-10, 1 mg/kg EMD521873 d7, 8, 9 plus chemoradiation): 2/8 | response rate (CRs) (LLC-10, 5 mg/kg EMD521873 d7, 8, 9 plus chemoradiation): 3/8 | response rate (CRs) (LLC-10, 15 mg/kg EMD521873 d7, 8, 9 plus chemoradiation): 3/8 | tumor volume (FIG. 9) (LLC-10, 1, 5 and 15 mg/kg EMD521873 in combination with chemoradiation vs EMD521873 alone, chemoradiation alone, vehicle): similarly reduced tumor volume | tumor growth control (LLC-11, EMD521873 5 mg/kg d0, 1, 2 followed by radiation for 1 or 2 weeks, vs EMD521873 or radiation alone): an increase in tumor growth control | tumor regressions and complete responses (LLC-11, EMD521873 followed by radiation for 1 or 2 weeks): neither tumor regressions nor complete responses were achieved | tumor regressions (LLC-12, EMD521873 5 mg/kg days 7, 8, 9 after a single week of radiation (3.6 Gy/d; d0, 2, 4)): a majority of tumor regressions | complete responses (LLC-12, EMD521873 after a single week of radiation): no complete responses | tumor regressions and tumor growth control (LLC-12, EMD521873 during the 2nd week of a 2 week or 3 week course of radiation, vs EMD521873 or radiation alone): tumor regressions and improved tumor growth control | complete responses (LLC-13, cisplatin plus radiation for 1 week followed by EMD521873): 4/10 | complete responses (LLC-13, cisplatin plus radiation for three weeks prior to EMD521873): 0/10 | tumor growth control (LLC-13, cisplatin plus radiation for two weeks or three weeks prior to EMD521873): neither gave enhancement of tumor growth control compared to chemoradiation alone | complete responses (LLC-13, cisplatin plus radiation for two weeks prior to EMD521873): 2/10 | tumor growth control (LLC-13, cisplatin plus radiation in the first week followed by EMD521873): enhancement of tumor growth control compared to either therapy alone | tumor growth (FIG. 6) (LLC-14, chemoradiation (cisplatin, 3.6 Gy/d d0-4) combined with immunocytokine on d6 and d17, EMD521873 5 mg/kg i.v., NHS-muIL12 10 μg/animal s.c.): enhanced the efficacy of EMD521873 | tumor growth (FIG. 7) (immunocytokine administered with chemoradiation, compared to no treatment, chemoradiation alone, immunocytokine alone): a decrease in tumor growth | complete regressions (FIG. 8) (treatment alone): no complete regressions occurred | tumor growth (FIG. 8) (treatment alone): no decrease in tumor growth was seen | complete regressions (FIG. 8) [3]: 9/9 | tumor volume (FIG. 8) [3]: a decrease in tumor volume

— patent US20100330029A1, “Cancer Treatments with Radiation and Immunocytokines” (Merck Patent GmbH, priority 2008, published 2010)
